Data on 3 compounds can be found in patent US8772274B1, “Anti-cancer compositions and methods” (The Penn State Research Foundation, priority 2008, dated 2014).

SMILES strings stand for the structures. Where a name gives a salt, the structure may show the parent alone. Read-outs that look alike come from different tables or passages of the source. A value given as a limit tells only on which side of the number the result lay.

The test system of data set [1] is 1205Lu melanoma cell line. As to the kind of experiment: MTS cell viability assay, 1205Lu. Type of data set: cell-based. The conditions noted are these: read-out: IC50, 1205Lu (Table I).
Procedure: (§1) Cellular viability compared to control treated cells is measured using the MTS assay (Promega, Madison, Wis.).
In data set [2] the test system is colon adenocarcinoma cells (Caco-2, HT 29, HCT 116, SW 480). As to the kind of experiment: MTS viability, four colon cancer cell lines (summary). Type of data set: cell-based. The conditions noted are these: Caco-2, HT 29, HCT 116, SW 480; 24-72 hours; read-out: IC50 range, four colon cancer cell lines.
Procedure: (§2) The IC50 value is evaluated by treating with increasing concentrations of PBIT, PEIT, PEISe (10-100 μM) or PBISe (1.6-50 μM) for 24-72 hours and the number of viable cell are quantified using MTS (Promega, Wis.).
The nature of data set [3]: Toxicity of topical application in vivo. The procedure:
Blood collected from the control and experimental animals, at the end of treatment (day 29), are analyzed for SGOT, SGPT (representing liver and cardiac toxicity) and alkaline phosphatase (for kidney and cardiac toxicity). Additionally, concentrations of metabolites (glucose, creatinine, urea nitrogen and total protein) in serum are also determined.

Data set [4] concerns A549 lung adenocarcinoma cells. As to the kind of experiment: MTS cell viability assay, A549. The format is cell-based, human. To be noted: A549 lung carcinoma; 24 h; MTS; read-out: Inhibition Cancer Cells IC50, A549 (Table III). For orientation: Formazan colour is commonly taken as a measure of viable cells.
Procedure: (§3) Growth inhibitory effects on cultured cells from human vertical growth phase (VGP) melanoma cell line WM115, Lung adenocarcinoma (A549), fibrosarcoma (HT-1080), prostate adenocarcinoma (PC-3), ovarian carcinoma (OVCAR-3), and breast adenocarcinoma (MDA-MB-231) are plated in 96 well plates at a density of 5×10^3 cells/well in 100 μl media. […] Dose response curves for each compound are generated and the IC50 values (μM) determined using GraphPad Prism software. Each experiment is replicated at least 3 times and the average IC50 (μM) values with standard error represented.
Data set [5] has as its system Caco-2 colon adenocarcinoma cells. As to the kind of experiment: MTS cell viability assay, Caco-2. To be noted: MTS.
Procedure: In vitro inhibitory efficacy is measured using 3-(4,5-dimethylthiazol-2-yl)-5-(3-carboxymethoxyphenyl)-2-(4-sulfophenyl)-2H-tetrazolium (MTS) assay (Promega, Madison, Wis.). […] Cells are treated with either vehicle control, PBS, PBIT (40-120 μM) or PBISe (2.4-10 μM) for 72 h. The percentages of viable cells compared to control PBS treated cells are determined using MTS assay and IC50 values calculated using GraphPad Prism version 4.01 (GraphPad software, San Diego, Calif.). An IC50 value for each compound is determined by at least three independent experiments and represented with a standard error.
as §2
For data set [6], the system named is HT-29 colorectal adenocarcinoma cells. As to the kind of experiment: MTS cell viability assay, HT-29. The format is cell-based.
In data set [7] the test system is MDA-MB-231 breast adenocarcinoma cells. The experiment in a line: MTS cell viability assay, MDA-MB-231. The format is cell-based, human. The conditions noted are these: MDA-MB-231 breast adenocarcinoma; 24 h; MTS; read-out: Inhibition Cancer Cells IC50, MDA-MB-231 (Table III).
Procedure: as §3
Data set [8] deals with UACC 903 melanoma cell line. As to the kind of experiment: MTS cell viability assay, UACC 903. The format is cell-based. The conditions noted are these: read-out: IC50, UACC 903 (Table I).
Procedure: as §1
The subject of data set [9] is normal human fibroblast cells (FF2441). The experiment in a line: MTS cell viability assay, normal fibroblasts. Type of data set: cell-based. To be noted: FF2441; 24-72 hours; MTS; read-out: Inhibition of growth IC50, Fibroblast cells (FF2441) (Table II).
Procedure: (§4) 5×10^3 cells per well in 100 μl DMEM-10% FBS are grown in a 96-well plate for 36 or 72 hours, respectively for melanoma (UACC 903, 1205 Lu and WM115) and human fibroblast (FF2441) cell lines and treated with either PBS vehicle or increasing concentrations (3.5-21 μM) of PBIT, PBISe, PEIT or PEISe for 24 hours. Cellular viability compared to control treated cells is measured using the MTS assay (Promega, Madison, Wis.). IC50 (μM) values for each compound in respective cell lines is determined from three independent experiments using GraphPad Prism version 4.01 (GraphPad, San Diego, Calif.), bars, SEM.
Viability of colon adenocarcinoma cells (Caco-2, HT 29, HCT 116, SW 480) and normal fibroblast cells (FF2441) treated with PBIT (1), PBISe (2), PEIT (3) or PEISe (4) is compared. The IC50 value is evaluated by treating with increasing concentrations of PBIT, PEIT, PEISe (10-100 μM) or PBISe (1.6-50 μM) for 24-72 hours and the number of viable cell are quantified using MTS (Promega, Wis.).
For data set [10], the system named is PI3 kinase/Akt3 and MAP kinase signaling in UACC 903 cells. As to the kind of experiment: Western blot analysis of melanoma cell lysates. The conditions noted are these: melanoma cells. The format is cell-based. The procedure:
Melanoma cell line UACC 903 cells (1×10^6) are treated with increasing concentrations (7-21 μM) of PBIT and PBISe for 24 hours and cell lysates examined by Western blot analysis Cell lysates are harvested by addition of lysis buffer containing 50 mM HEPES (pH 7.5), 150 mM NaCl, 10 mM EDTA, 10% glycerol, 1% Triton X-100, 1 mM sodium orthovanadate, 0.1 mM sodium molybdate, 1 mM phenylmethylsulfonyl fluoride, 20 μg/ml aprotinin, and 5 μg/ml leupeptin. Whole cell lysates are centrifuged (≧10,000×g) for 10 minutes at 4° C. to remove cell debris. Protein concentrations are quantitated using the BCA assay (Pierce, Rockford, Ill.), and 30 μg of lysate loaded per lane onto NuPAGE Gels (Life Technologies, Carlsbad, Calif.). Following electrophoresis, samples are transferred to polyvinylidene difluoride membrane (Pall Corporation, Pensacola, Fla.). Blots are probed with antibodies to PRAS40 and phosphorylated PRAS40 (Thr246) (Invitrogen, Carlsbad, Calif.); antibodies to iNOS, cyclin D1, p27, p21, Erk2, α-enolase and secondary antibodies conjugated with horseradish peroxidase from Santa Cruz Biotechnology (Santa Cruz, Calif.); and antibodies to Akt3, phosphorylated-Akt (Ser473), phosphorylated-Erk 1/2 (Thr202/Tyr204), caspase-3 and cleaved PARP from Cell Signaling Technology (Danvers, Mass.). Immunoblots are developed using ECL (Pierce, Rockford, Ill.).
(In general: A western blot detects proteins with antibodies after separation by electrophoresis.)

Data set [11] deals with HCT-116 colorectal adenocarcinoma cells. As to the kind of experiment: MTS cell viability assay, HCT-116. Type of data set: cell-based.
Data set [12] has as its system A549, Caco-2, HT-1080, PC-3, OVCAR-3, MDA-MB-231, WM115. The experiment in a line: MTS viability, all cancer cell lines tested (summary). The conditions noted are these: Table III; read-out: concentration decreasing cell viability by 50% (IC50), cancer cell lines of Table III. The format is cell-based, human.
Procedure: as §3
The subject of data set [13] is PC-3 prostate adenocarcinoma cells. The experiment in a line: MTS cell viability assay, PC-3. The format is cell-based, human. To be noted: PC-3 prostate adenocarcinoma; 24 h; MTS; read-out: Inhibition Cancer Cells IC50, PC-3 (Table III).
Procedure: as §3
The subject of the next data set is WM115 melanoma cell line. As to the kind of experiment: MTS cell viability assay, WM115.
In data set [14] the test system is HT-1080 fibrosarcoma cells. As to the kind of experiment: MTS cell viability assay, HT-1080. The format is cell-based, human. The conditions noted are these: HT-1080 fibrosarcoma; 24 h; MTS; read-out: Inhibition Cancer Cells IC50, HT-1080 (Table III).
Procedure: as §3
The subject of data set [15] is iNOS (total nitrate+nitrite in Caco-2 cells). As to the kind of experiment: Nitrite estimation (nitrate/nitrite colorimetric assay). To be noted: 80 μM, 72 hours. Type of data set: cell-based. The procedure: Nitrite content in cell culture media is determined using a nitrate/nitrite colorimetric assay kit (Cayman Chemical Company, Ann Arbor, Mich.) essentially as described in Salvucci, O. et al., Cancer Res 2001; 61:318-26. Caco-2 cells (1×10^6) are plated in 60 mm culture dishes in advanced DMEM containing 10% heat treated FBS for 12 hours, growing cells conditioned with phenol-red free DMEM containing 0.5% FBS for an additional 12 hours. Cells are then treated with increasing concentrations of PBIT (40 and 80 μM) or PBISe (2 and 4 μM) dissolved in phenol-red free DMEM (2 ml) containing 0.5% FBS for 72 hours. Culture supernatants are collected and total nitrite (nitrate+nitrite) measured by incubating 80 μL supernatant with enzyme cofactor mixture (10 μL) and nitrate reductase (10 μL) for 2 hours. Total nitrite is measured by the addition of Griess reagent-I and II (50 μL each). A nitrate standard curve (5-35 μM) is simultaneously prepared. Total nitrite present in media alone is subtracted from all experimental values and represented as micromolar nitrite produced following each treatment.

Data set [16] has as its system OVCAR-3 ovarian carcinoma cells. As to the kind of experiment: MTS cell viability assay, OVCAR-3. Type of data set: cell-based, human. To be noted: OVCAR-3 ovarian carcinoma; 24 h; MTS; read-out: Inhibition Cancer Cells IC50, OVCAR-3 (Table III).
Procedure: as §3
Data set [17] has as its system SW-480 colorectal adenocarcinoma cells. The experiment in a line: MTS cell viability assay, SW-480. Type of data set: cell-based. To be noted: Homo sapiens, SW480, read-out: Inhibition of growth IC50, last Colorectal adenocarcinoma row (Table II).
Setting [18] is: read-out: Inhibition of growth IC50, Caco-2 (Table II), Caco-2, 24-72 hours.

Procedure for WM115 melanoma cell line: as §4
Growth inhibitory effects on cultured cells from human vertical growth phase (VGP) melanoma cell line WM115, Lung adenocarcinoma (A549), fibrosarcoma (HT-1080), prostate adenocarcinoma (PC-3), ovarian carcinoma (OVCAR-3), and breast adenocarcinoma (MDA-MB-231) are plated in 96 well plates at a density of 5×10^3 cells/well in 100 μl media. The cells are treated 36 hours later with PBISe (0.19-100 μM), PBIT (10-100 μM), PEIT 10-100 μM), or PEISe (10-100 μM) for 24 h and cell viability measured using MTS assay. Dose response curves for each compound are generated and the IC50 values (μM) determined using GraphPad Prism software. Each experiment is replicated at least 3 times and the average IC50 (μM) values with standard error represented.

Usually melting point stands for the temperature of the solid-liquid transition. `N=C(N)[Se]CCc1ccccc1` (as salt: hydrobromid) [PEISe, s-2-phenylethylisoselenourea hydrobromide] yielded a melting point of 140 to 142 °C.

Take `Br.Br.N=C(N)SCCc1ccc(CCSC(=N)N)cc1` [PBIT, s,s′-1,4-phenylene-bis(1,2-ethanediyl)bis-isothiourea dihydrobromide, reference compound]: the IC50 in [1] (1205Lu melanoma, 24 hours treatment, MTS) was more than 100 µM; in data set [2], 59 to 100 µM; in [4], more than 100 µM; in data set [5] (read-out: Inhibition Cancer Cells IC50, Caco-2 (Table III), Caco-2 colorectal adenocarcinoma), 59.4 ± 3.8 µM; in data set [5] (setting [18]), 59.4 ± 3.83 µM; in [6] (HT-29, 24-72 hours, MTS, read-out: Inhibition of growth IC50, HT-29 (Table II)), more than 100 µM. The IC50 was more than 100 µM in data set [7]; more than 100 µM in data set [8] (UACC 903 melanoma, 24 hours treatment, MTS); more than 100 µM in [9]; more than 100 µM in data set [11] (HCT-116, 24-72 hours, MTS, read-out: Inhibition of growth IC50, HCT-116 (Table II)); more than 100 µM in [12]; more than 100 µM in data set [13]. Also, the IC50 in the data set with WM115 melanoma cell line (read-out: IC50, WM115 (Table I), WM115 melanoma, 24 hours treatment, MTS) is more than 100 µM; in the data set with WM115 melanoma cell line (read-out: Inhibition Cancer Cells IC50, WM115 (Table III), WM115 melanoma, 24 h, MTS) it was more than 100 µM; in data set [14] it was more than 100 µM; in data set [16], more than 100 µM. Moreover, in [3] (day 29, SGOT, SGPT, alkaline phosphatase, glucose, creatinine, urea nitrogen, total protein), the “serum enzyme and metabolite levels, topical application” value is recorded as “no significant differences”. Further, in data set [3] (topical every day, 29 days), the “body weight, topical application” value was “no detectable differences”. Moreover, the iNOS expression entry in data set [10] (FIG. 4B) is listed as “elevates”. The “cyclin D1 levels” value in data set [10] (FIG. 4C) is reported as “does not alter”. For the same compound, the “total nitrate+nitrite levels compared to control PBS treated cells” value in data set [15] is given as “significantly reduces”.

With `N=C(N)[Se]CCc1ccccc1` [PEISe, s-2-phenylethylisoselenourea hydrobromide], the IC50 in [1] (Homo sapiens, 1205Lu, 24 h) is more than 100 µM; in data set [5] (setting [18]) it was 16 ± 2 µM; in [6] (Homo sapiens, HT-29, read-out: Inhibition of growth IC50, HT-29 (Table II)), 21.9 ± 2.1 µM; in [8] (Homo sapiens, UACC-903, 24 h), more than 100 µM; in data set [11] (Homo sapiens, HCT-116, read-out: Inhibition of growth IC50, HCT-116 (Table II)), more than 100 µM; with WM115 melanoma cell line (Homo sapiens, WM-115, 24 h, read-out: IC50, WM115 (Table I)) it was approximately 80 µM. The IC50 in [17] is more than 100 µM.
